Assay results: US11866450B2, “Modulators of Cystic Fibrosis Transmembrane Conductance regulator, pharmaceutical compositions, methods of treatment, and process for making the modulators” (priority 2018, dated 2024)

Biological target: CFTR-mediated chloride transport (Homo sapiens, UniProt P13569)
Assay type: cell-based
Conditions: enteroid cells incubated with test compound 18-24 hours, acute 10 μM forskolin and 300 nM Compound III; for Max. Activity: % of chloride transport with 3 μM Compound A, 3 μM Compound II and 300 nM acute Compound III triple combination control
Procedure, shortened: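 Human intestinal enteroid cells incubated with compound 18–24 h at 37° C., then membrane potential dye (FLIPR) read 15 min after chloride-free stimulation with 10 μM forskolin, 100 μM IBMX and 300 nM Compound III. AUC expressed as % of triple-combination control (3 μM Compound A, 3 μM Compound II, 300 nM Compound III).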

Chain of CFTR-mediated chloride transport (P13569 whole entry, looked up): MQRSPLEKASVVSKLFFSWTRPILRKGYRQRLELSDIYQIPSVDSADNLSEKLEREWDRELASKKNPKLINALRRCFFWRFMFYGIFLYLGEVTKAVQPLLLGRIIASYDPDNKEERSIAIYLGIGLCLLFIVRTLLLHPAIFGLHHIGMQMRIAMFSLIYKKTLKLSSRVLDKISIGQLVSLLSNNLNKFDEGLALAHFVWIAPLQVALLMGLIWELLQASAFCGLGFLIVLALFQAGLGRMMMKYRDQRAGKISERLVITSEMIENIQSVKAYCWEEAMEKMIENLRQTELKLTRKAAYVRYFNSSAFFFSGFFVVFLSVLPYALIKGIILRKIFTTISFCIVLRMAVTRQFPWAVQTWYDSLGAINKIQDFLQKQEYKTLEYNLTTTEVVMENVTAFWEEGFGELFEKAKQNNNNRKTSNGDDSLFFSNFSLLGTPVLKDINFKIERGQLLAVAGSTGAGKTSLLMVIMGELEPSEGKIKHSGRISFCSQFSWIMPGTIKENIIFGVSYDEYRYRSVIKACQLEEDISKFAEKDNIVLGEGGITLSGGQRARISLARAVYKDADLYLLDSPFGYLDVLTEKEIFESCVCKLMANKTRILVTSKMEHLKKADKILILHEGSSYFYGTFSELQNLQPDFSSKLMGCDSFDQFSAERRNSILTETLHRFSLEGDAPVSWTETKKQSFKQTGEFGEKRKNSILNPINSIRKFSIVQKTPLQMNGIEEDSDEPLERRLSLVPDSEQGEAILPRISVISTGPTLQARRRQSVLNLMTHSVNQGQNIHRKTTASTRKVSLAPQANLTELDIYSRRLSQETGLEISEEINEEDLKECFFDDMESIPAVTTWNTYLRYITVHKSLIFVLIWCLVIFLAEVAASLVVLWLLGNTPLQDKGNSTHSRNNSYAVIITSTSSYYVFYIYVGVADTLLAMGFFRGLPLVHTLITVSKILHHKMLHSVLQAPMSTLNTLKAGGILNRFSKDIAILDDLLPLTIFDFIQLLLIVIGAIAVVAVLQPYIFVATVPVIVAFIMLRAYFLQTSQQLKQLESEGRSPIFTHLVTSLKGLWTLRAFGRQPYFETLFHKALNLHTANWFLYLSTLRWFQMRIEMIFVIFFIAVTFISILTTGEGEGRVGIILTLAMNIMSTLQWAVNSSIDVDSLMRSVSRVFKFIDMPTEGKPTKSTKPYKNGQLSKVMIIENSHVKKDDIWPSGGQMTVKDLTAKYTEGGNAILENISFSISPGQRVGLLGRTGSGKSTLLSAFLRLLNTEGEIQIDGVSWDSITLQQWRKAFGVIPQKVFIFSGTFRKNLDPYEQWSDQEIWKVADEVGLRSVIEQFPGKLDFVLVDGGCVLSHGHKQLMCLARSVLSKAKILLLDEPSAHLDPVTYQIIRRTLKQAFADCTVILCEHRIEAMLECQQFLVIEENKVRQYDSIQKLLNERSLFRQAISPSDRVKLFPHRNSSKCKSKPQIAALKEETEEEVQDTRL

CC1(C)C[C@H]2C[C@@H](F)CNc3cccc(n3)S(=O)(=O)NC(=O)c3ccc(-n4ccc(OCCC5C6(CC6)C56CC6)n4)nc3N1C2 (single isomer, unassigned) [Compound 307, 8-[3-(2-{dispiro[2.0.2.1]heptan-7-yl}ethoxy)-1H-pyrazol-1-yl]-16-fluoro-12,12-dimethyl-2λ^6-thia-3,9,11,18,23-pentaazatetracyclo[17.3.1.111,14.05,10]tetracosa-1(22),5,7,9,19(23),20-hexaene-2,2,4-trione]
EC50: > 3000 nM
Max. Activity: + (+ is <30%)

CC1(C)C[C@H]2C[C@@H](F)CNc3cccc(n3)S(=O)(=O)NC(=O)c3ccc(-n4ccc(OCCC5C6(CC6)C56CC6)n4)nc3N1C2 (single isomer, unassigned) [Compound 308, 8-[3-(2-{dispiro[2.0.2.1]heptan-7-yl}ethoxy)-1H-pyrazol-1-yl]-16-fluoro-12,12-dimethyl-2λ^6-thia-3,9,11,18,23-pentaazatetracyclo[17.3.1.111,14.05,10]tetracosa-1(22),5,7,9,19(23),20-hexaene-2,2,4-trione]
EC50: < 1000 nM
Max. Activity: + (+ is <30%)

CC1(C)C[C@H]2C[C@@H](F)CNc3cccc(n3)S(=O)(=O)NC(=O)c3ccc(-n4ccc(OCCC5C6(CC6)C56CC6)n4)nc3N1C2 (single isomer, unassigned) [Compound 309, 8-[3-(2-{Dispiro[2.0.2.1]heptan-7-yl}ethoxy)-1H-pyrazol-1-yl]-16-fluoro-12,12-dimethyl-2λ^6-thia-3,9,11,18,23-pentaazatetracyclo[17.3.1.111,14.05,10]tetracosa-1(22),5,7,9,19(23),20-hexaene-2,2,4-trione]
EC50: < 1000 nM
Max. Activity: +++ (+++ is >60%)

CC1(C)C[C@H]2CCCn3ccc(n3)S(=O)(=O)NC(=O)c3ccc(N4CCC(OCCC5(C(F)(F)F)CC5)C4=O)nc3N1C2 (stereo in doubt) [Compound 183, 20,20-Dimethyl-4-(2-oxo-3-{2-[1-(trifluoromethyl)cyclopropyl]ethoxy}pyrrolidin-1-yl)-10λ^6-thia-1,3,9,14,22-pentaazatetracyclo[16.2.1.111,14.02,7]docosa-2,4,6,11(22),12-pentaene-8,10,10-trione]
EC50: < 1000 nM
Max. Activity: ++ (++ is 30-60%)

CC(C)(C)CCC1CCN(c2ccc3c(n2)N2C[C@H](CCCn4ccc(n4)S(=O)(=O)NC3=O)CC2(C)C)C1=O (stereo in doubt) [Compound 184, 4-[3-(3,3-dimethylbutyl)-2-oxopyrrolidin-1-yl]-20,20-dimethyl-10λ^6-thia-1,3,9,14,22-pentaazatetracyclo[16.2.1.111,14.02,7]docosa-2,4,6,11(22),12-pentaene-8,10,10-trione]
EC50: 1000 to 3000 nM
Max. Activity: + (+ is <30%)

CN1CCC[C@H]2CCC(C)(C)N2c2nc(-n3ccc(OCCC4(C(F)(F)F)CC4)n3)ccc2C(=O)NS(=O)(=O)c2cccc1n2 [Compound 10, (15S)-12,12,19-trimethyl-8-(3-{2-[1-(trifluoromethyl)cyclopropyl]ethoxy}-1H-pyrazol-1-yl)-2λ^6-thia-3,9,11,19,24-pentaazatetracyclo[18.3.1.05,10.011,15]tetracosa-1(24),5(10),6,8,20,22-hexaene-2,2,4-trione]
EC50: > 3000 nM
Max. Activity: + (+ is <30%)

CN1CCC[C@@H]2CCC(C)(C)N2c2nc(-n3ccc(OCCC4(C(F)(F)F)CC4)n3)ccc2C(=O)NS(=O)(=O)c2cccc1n2 [Compound 11, (15R)-12,12,19-trimethyl-8-(3-{2-[1-(trifluoromethyl)cyclopropyl]ethoxy}-1H-pyrazol-1-yl)-2λ^6-thia-3,9,11,19,24-pentaazatetracyclo[18.3.1.05,10.011,15]tetracosa-1(24),5(10),6,8,20,22-hexaene-2,2,4-trione]
EC50: < 1000 nM
Max. Activity: +++ (+++ is >60%)

CC1(C)C[C@H]2CCCNc3cccc(n3)S(=O)(=O)NC(=O)c3ccc(-n4ccc(OCCC5(C(F)(F)F)CC5)n4)nc3N1C2 [Compound 13, (14R)-12,12-dimethyl-8-(3-{2-[1-(trifluoromethyl)cyclopropyl]ethoxy}-1H-pyrazol-1-yl)-2λ^6-thia-3,9,11,18,23-pentaazatetracyclo[17.3.1.111,14.05,10]tetracosa-1(23),5,7,9,19,21-hexaene-2,2,4-trione]
EC50: 1000 to 3000 nM
Max. Activity: + (+ is <30%)

CC1(C)C[C@@H]2CCCNc3cccc(n3)S(=O)(=O)NC(=O)c3ccc(-n4ccc(OCCC5(C(F)(F)F)CC5)n4)nc3N1C2 [Compound 14, (14S)-12,12-dimethyl-8-(3-{2-[1-(trifluoromethyl)cyclopropyl]ethoxy}-1H-pyrazol-1-yl)-2λ^6-thia-3,9,11,18,23-pentaazatetracyclo[17.3.1.111,14.05,10]tetracosa-1(23),5,7,9,19,21-hexaene-2,2,4-trione]
EC50: < 1000 nM
Max. Activity: +++ (+++ is >60%)

CC1(C)CC[C@@H]2CCCNc3cccc(n3)S(=O)(=O)NC(=O)c3ccc(-n4ccc(OCCC5(C(F)(F)F)CC5)n4)nc3N21 [Compound 33, (15S)-12,12-Dimethyl-8-(3-{2-[1-(trifluoromethyl)cyclopropyl]ethoxy}-1H-pyrazol-1-yl)-2λ^6-thia-3,9,11,19,24-pentaazatetracyclo[18.3.1.05,10.011,15]tetracosa-1(23),5,7,9,20(24),21-hexaene-2,2,4-trione]
EC50: > 3000 nM
Max. Activity: + (+ is <30%)

CC1(C)CC[C@H]2CCCNc3cccc(n3)S(=O)(=O)NC(=O)c3ccc(-n4ccc(OCCC5(C(F)(F)F)CC5)n4)nc3N21 [Compound 34, (15R)-12,12-dimethyl-8-(3-{2-[1-(trifluoromethyl)cyclopropyl]ethoxy}-1H-pyrazol-1-yl)-2λ^6-thia-3,9,11,19,24-pentaazatetracyclo[18.3.1.05,10.011,15]tetracosa-1(23),5,7,9,20(24),21-hexaene-2,2,4-trione]
EC50: < 1000 nM
Max. Activity: +++ (+++ is >60%)

CC1CCC2CN(c3nc(-n4ccc(OCCC5(C(F)(F)F)CC5)n4)ccc3C(=O)NS(=O)(=O)c3cccc(n3)N1)C(C)(C)C2 (centres unmarked) [Compound 35, 12,12,17-trimethyl-8-(3-{2-[1-(trifluoromethyl)cyclopropyl]ethoxy}-1H-pyrazol-1-yl)-2λ^6-thia-3,9,11,18,23-pentaazatetracyclo[17.3.1.111,14.05,10]tetracosa-1(23),5(10),6,8,19,21-hexaene-2,2,4-trione]
EC50: < 1000 nM
Max. Activity: +++ (+++ is >60%)

CC1CCC2CN(c3nc(-n4ccc(OCCC5(C(F)(F)F)CC5)n4)ccc3C(=O)NS(=O)(=O)c3cccc(n3)N1)C(C)(C)C2 (centres unmarked) [Compound 36, 12,12,17-trimethyl-8-(3-{2-[1-(trifluoromethyl)cyclopropyl]ethoxy}-1H-pyrazol-1-yl)-2λ^6-thia-3,9,11,18,23-pentaazatetracyclo[17.3.1.111,14.05,10]tetracosa-1(23),5(10),6,8,19,21-hexaene-2,2,4-trione]
EC50: < 1000 nM
Max. Activity: +++ (+++ is >60%)

CC1(C)CCC2CNc3cccc(n3)S(=O)(=O)NC(=O)c3ccc(-n4ccc(OCCC5(C(F)(F)F)CC5)n4)nc3N21 (centres unmarked) [Compound 41, 7,7-dimethyl-11-(3-{2-[1-(trifluoromethyl)cyclopropyl]ethoxy}-1H-pyrazol-1-yl)-17λ^6-thia-2,8,10,16,22-pentaazatetracyclo[16.3.1.04,8.09,14]docosa-1(22),9,11,13,18,20-hexaene-15,17,17-trione]
EC50: > 3000 nM
Max. Activity: + (+ is <30%)

CC1(C)CC2CCCNc3cccc(n3)S(=O)(=O)NC(=O)c3ccc(-n4ccc(OCC5C(C)(C)C5(C)C)n4)nc3N1C2 (centres unmarked) [Compound 42, 12,12-dimethyl-8-{3-[(2,2,3,3-tetramethylcyclopropyl)methoxy]-1H-pyrazol-1-yl}-2λ^6-thia-3,9,11,18,23-pentaazatetracyclo[17.3.1.111,14.05,10]tetracosa-1(22),5,7,9,19(23),20-hexaene-2,2,4-trione]
EC50: < 1000 nM
Max. Activity: +++ (+++ is >60%)

CC1(C)C[C@H]2CCCNc3cccc(n3)S(=O)(=O)NC(=O)c3ccc(-n4ccc(OCCC(C5CC5)C5CC5)n4)nc3N1C2 [Compound 65, (14R)-8-[3-(3,3-dicyclopropylpropoxy)-1H-pyrazol-1-yl]-12,12-dimethyl-2λ^6-thia-3,9,11,18,23-pentaazatetracyclo[17.3.1.111,14.05,10]tetracosa-1(22),5,7,9,19(23),20-hexaene-2,2,4-trione]
EC50: < 1000 nM
Max. Activity: ++ (++ is 30-60%)

CC(C)(C)CCC1CCN(c2ccc3c(n2)N2C[C@@H](CCCNc4cccc(n4)S(=O)(=O)NC3=O)CC2(C)C)C1=O (stereo partly drawn) [Compound 79, (14S)-8-[3-(3,3-dimethylbutyl)-2-oxopyrrolidin-1-yl]-12,12-dimethyl-2λ^6-thia-3,9,11,18,23-pentaazatetracyclo[17.3.1.111,14.05,10]tetracosa-1(23),5,7,9,19,21-hexaene-2,2,4-trione]
EC50: < 1000 nM
Max. Activity: ++ (++ is 30-60%)

CC1(C)C[C@H]2CCCn3ccc(n3)S(=O)(=O)NC(=O)c3ccc(-n4ccc(OCCC5(C(F)(F)F)CC5)n4)nc3N1C2 [Compound 84, (18R)-20,20-Dimethyl-4-(3-{2-[1-(trifluoromethyl)cyclopropyl]ethoxy}-1H-pyrazol-1-yl)-10λ^6-thia-1,3,9,14,22-pentaazatetracyclo[16.2.1.111,14.02,7]docosa-2,4,6,11(22),12-pentaene-8,10,10-trione]
EC50: > 3000 nM
Max. Activity: + (+ is <30%)

CC1(C)C[C@@H]2CCCn3ccc(n3)S(=O)(=O)NC(=O)c3ccc(-n4ccc(OCCC5(C(F)(F)F)CC5)n4)nc3N1C2 [Compound 85, (18S)-20,20-dimethyl-4-(3-{2-[1-(trifluoromethyl)cyclopropyl]ethoxy}-1H-pyrazol-1-yl)-10λ^6-thia-1,3,9,14,22-pentaazatetracyclo[16.2.1.111,14.02,7]docosa-2,4,6,11(22),12-pentaene-8,10,10-trione]
EC50: < 1000 nM
Max. Activity: +++ (+++ is >60%)
